We go through two compounds from ChEMBL document CHEMBL5385919, “A Survey of Recently Discovered Naturally Occurring Organohalogen Compounds” (J Nat Prod, 2024).

One assay relates to Staphylococcus aureus. Nature of the assay: Antibacterial activity against Staphylococcus aureus assessed as reduction in bacterial growth. The class given is functional.
For the next assay, the system named is Bacillus subtilis. The assay is described as follows: Antibacterial activity against Bacillus subtilis assessed as reduction in bacterial growth. It is filed as functional.
The next assay relates to Plasmodium falciparum. Nature of the assay: Antiplasmodial activity against Plasmodium falciparum K1 assessed as reduction in parasite growth. It is filed as functional, organism-based.
The test system of the next assay is KB. Nature of the assay: Cytotoxicity against human KB cells assessed as inhibition of cell growth incubated for 48 hrs by MTT assay. It is filed as functional, cell-based. A general note: Tetrazolium dyes change colour on reduction, which living cells bring about.
A further assay relates to HL-60. Nature of the assay: Cytotoxicity against human HL-60 cells assessed as inhibition of cell growth incubated for 48 hrs by MTT assay. The class given is functional, cell-based. The following applies: HL-60, 48 h.
Another assay has as its system MGC-803. The assay is described as follows: Cytotoxicity against human MGC-803 cells assessed as inhibition of cell growth incubated for 48 hrs by MTT assay. The class given is functional, cell-based. The following applies: MGC-803, 48 h.
The test system of the next assay is MCF7. The assay is described as follows: Cytotoxicity against human MCF7 cells assessed as inhibition of cell growth incubated for 48 hrs by MTT assay. It is filed as functional, cell-based. The following applies: MCF7, 48 h.

pIC50: −log10 of the molar value. ≈ marks a conversion by molar mass, not a printed value.

In the case of `Cc1cc(O)cc2c1[C@@H]1O[C@@](C)(Cc3cc4c(c(O)c31)C(=O)c1c(O)cc(O)c(Cl)c1C4(C)C)O2`, the MIC (usually the lowest concentration found to suppress growth) was found to be 800 ng/mL (≈ 1.62 µM) in the assay with Staphylococcus aureus and 400 ng/mL (≈ 0.808 µM) in the assay on Bacillus subtilis. Also, in the assay on Plasmodium falciparum, the negative-log IC50 (pIC50) (as a rule, the negative decadic logarithm of the IC50, by convention in mol/L) was 5.35.

Take `COc1c(Cl)ccc2c(=O)c3c(O)c4c5c(c3oc12)OCO[C@@H]5Cc1c-4c(O)c2c(=O)[nH]c(C)c(Cl)c2c1O`: the IC50 with KB, in the assay with HL-60, with MGC-803 and in the assay on MCF7 was 8 ng/mL (≈ 0.014 µM) each time.
